Earlier results, collected in US6733485B1, “Microstimulator-based electrochemotherapy methods and systems” (Advanced Bionics Corporation, priority 2001, dated 2004).
Where a name gives a salt, the structure may show the parent alone. Read-outs that look alike come from different tables or passages of the source.

Assays:
[1] = test system: rat and human glioma cells
[2] = test system: malignant melanoma skin metastases
[3] = test system: metastatic lesion of oral fibrosarcoma
[4] = test system: multicellular prostate tumor spheroids; conditions: DC electrical field 500 V/m for 90 seconds
[5] = in vitro, administered along with electrical stimulation
[6] = test system: permeation nodules of head and neck squamous cell carcinomas
[7] = test system: HNSCC permeation nodules, salivary cancer, and breast cancer; conditions: electrochemotherapy
[8] = test system: cutaneous and subcutaneous tumors
[9] = test system: subcutaneous metastasis of hypernephroma; conditions: three sessions over four weeks, electric pulses 10 minutes after intravenous injection
[10] = test system: subcutaneously established colorectal tumor

## N.N.O=C([O-])C1(C(=O)[O-])CCC1.[Pt+2] [carboplatin]
[1]; carboplatin: high dose
  enhancement of cytotoxicity by electric stimulation: only slightly enhanced

## N.N.[Cl][Pt][Cl] [cisplatin]
[2]; chemotherapy-treated nodules (cisplatin alone)
  median time to progression: four
[2]; cisplatin alone, 18 nodules
  tumor nodules responded: 22%
[2]; electrochemotherapy, four weeks after treatment, 27 nodules
  tumor nodules responded: 48%
[2]; electrochemotherapy-treated nodules
  median time to progression: 21 weeks
Tumors in mice; all time points tested
  platinum bound to DNA, electrochemotherapy versus cisplatin treated tumors: Approximately two
Tumors in mice; cisplatin treatment without electric pulses, intratumoral 1-8 mg/kg
  tumor growth delay: up to 20 days
Tumors in mice; electrochemotherapy, 4 mg/kg, eight pulses 100 μsec, 1 Hz, 1040 V
  tumor cures (local tumor control plateau): 67%

## O=P1(N(CCCl)CCCl)NCCCO1 (centres unmarked) [cyclophosphamide]
[3]; cyclophosphamide injection alone
  effect on tumor growth: no significant suppressive effect
[3]; intraperitoneal injection followed by local electric pulses, several days after treatment
  tumor size: markedly reduced in size

## COc1cccc2c1C(=O)c1c(O)c3c(c(O)c1C2=O)C[C@@](O)(C(=O)CO)C[C@@H]3O[C@H]1C[C@H](N)[C@H](O)[C@H](C)O1 [doxorubicin]
[4]
  uptake of doxorubicin: did increase their uptake of doxorubicin

## COc1cc([C@@H]2c3cc4c(cc3[C@@H](O[C@@H]3O[C@@H]5CO[C@@H](C)O[C@H]5[C@H](O)[C@H]3O)[C@H]3COC(=O)[C@H]23)OCO4)cc(OC)c1O [etoposide]
[1]
  enhancement of cytotoxicity by electric stimulation: no electrochemotherapy enhancement

## Cc1ncc(CNC(=O)N(CCCl)N=O)c(N)n1 [nimustine hydrochloride]
[1]; carboplatin: high dose
  enhancement of cytotoxicity by electric stimulation: no electrochemotherapy enhancement

## CC[C@]1(O)C[C@H]2CN(CCc3c([nH]c4ccccc34)[C@@](C(=O)OC)(c3cc4c(cc3OC)N(C=O)[C@H]3[C@@](O)(C(=O)OC)[C@H](OC(C)=O)[C@]5(CC)C=CCN6CC[C@]43[C@@H]65)C2)C1 [vincristine]
[1]
  enhancement of cytotoxicity by electric stimulation: no electrochemotherapy enhancement

## bleomycin
[5]
  factor by which the dose of bleomycin can be reduced: 100-5000
[6]; 10 mg/m^2 intravenous bolus plus electric pulses, eight patients
  side effects: Neither local nor general side effects were observed
[6]; 10 mg/m^2 intravenous bolus, then 4 or 8 cycles of 100 μsec pulses at 1300 V/cm, 40 nodules, within a few days
  nodules with clinical complete response: 57%
[7]
  effectiveness after intraarterial or intranodular injection: effective
[7]; seven patients
  antitumor effects: Clear antitumor effects were obtained
Human T98G glioma cells; 8 cycles, 1 Hz square wave, 100 μsecond, 1000 V/cm
  increase of toxicity of bleomycin by electric stimulation: more than 1000 fold
Human T98G glioma cells; bleomycin concentration 100 pg/ml
  increase of toxicity at reduced bleomycin concentration: This increase disappeared
[8]; bleomycin only, no electric pulses
  complete responses in nodules: No complete responses
[8]; bleomycin plus 6-8 pulses, 1300 V/cm, 34 patients
  patients responding to the treatment: All patients responded
[8]; bleomycin plus electric pulses
  nodules with complete responses: 91%
  side effects: no significant side effects were noted
[8]; bleomycin plus electric pulses, within 12 weeks
  metastatic nodules or primary tumors with responses: 142 of 143
[9]
  time for which tumor volume was stabilized: 12 months
[10]; intratumoral, intravenous or intraperitoneal, 1/50 to 1/2 of LD50, 500 to 2,000 V/cm
  tumor development: Significant suppression of tumor development and even some cures
[10]; lowest dose of bleomycin and lowest electric field intensity, repeated
  cures on repeated electrochemotherapy: complete cures of colorectal cancer were achieved in all animals
